In US11331371B2, “Labyrinthopeptins as anti-viral agents” (Helmholtz-Zentrum Für Infektionsforschung GMBH, priority 2015, dated 2022):
Where two headings read alike, the source gives them in different places.

Legend:
[1] = tested on: Dengue Virus (Type 2 New Guinea C); assay: Dose response assay, DENV infection of Huh-7.5 cells, DENV envelope protein immunostaining, high-content imaging; type: cell-based; settings: MOI 0.5, 48 h post-infection; for IC50: read-out: IC50 of the anti-viral activity, DENV
Procedure: Huh-7.5 cells (3×10^4 per well) were seeded in black 96-well optical-bottom plates [Nunc] in full growth medium one day prior to infection. After washing with PBS, 40 μl assay medium (5% FBS) was added to cells containing either Laby A1, Laby A2 (final conc. 50, 16.7, 5.56, 1.85, 0.62, 0.21, 0.069 μg/ml) or a combination of Laby A1 and Laby A2 (25, 8.3, 2.8, 0.93, 0.31, 0.10, 0.034 μg/ml each). Treatments were run in doublets. PBS served as a control. After 30 min of incubation, cells were infected with Dengue Virus (Type 2 New Guinea C) at an MOI of 0.5 to give a final volume of 60 μl/well. After 2 h incubation at room temperature cells were washed with PBS and 100 μl assay medium was added per well. Infected cells were incubated for another 48 h. Hereafter media were removed from the wells and cells were fixed with 4% PFA. Fixed cells were washed extensively with PBS and permeabilized with 0.25% TritonX-100 for 5 min. After blocking with 5% FB in PBS primary antibody was applied (Anti-Dengue Virus E glycoprotein antibody [DE1] (ab41349) [Abcam], 1:100 diluted in 5% FBS/PBS) for 2 h. After washing secondary antibody (Alexa Fluor® 488 Goat Anti-Mouse IgG (H+L) [Life Technologies], 1:1000 diluted in 5% FBS/PBS) was applied for 1 h. Finally, cells were stained with DAPI (500 ng/ml in PBS) for 5 min.
Fluorescent cells were analyzed by high-content imaging using the automated microscope ImageXpressMicro [Molecular Devices] and the MetaXpress-software. […] The number of total cells/site was determined by automatically counting DAPI-stained nuclei. The percentage of DENV-positive cells was calculated by automatically evaluating the number of Alexa Fluor 488-positive cells in relation to the total cell number. […] IC50-values were calculated by non-linear regression.
To determine a potential synergistic effect of Labyrinthopeptins A1 and A2 on DENV-infection a dose response assay was performed. […] The number of total cells as well as the percentage of Alexa Fluor 488-positive cells (=DENV positive cells) was determined by high-content fluorescence imaging.

[2] = Cell-based HTS system for cytotoxic concentration (CC50), FF-luc HEp-2 cells; settings: 72 h, concentrations up to 100 μM, read-out: half maximal cytotoxic concentration (CC50)
Procedure: Cells (e.g. HEp-2 cells), which stably express the reporter gene of a firefly luciferase (FF-luc), may be seeded in a 96-well plate in media, e.g. in Gibco® Advanced MEM. After 72 h of incubation at 37° C. in the presence of increasing concentrations of the labyrinthopeptin, labyrinthopeptin derivative or combination to be tested (e.g. up to 100 μM), the cells may be lysed and the extinction of the FF-luc (RLU) may be measured. Therefore, a plate luminometer (Berthold) may be used. The number of surviving cells is […] proportional to residual luciferase expression.
A cell-based screening system was used to determine the cytotoxic concentration (CC50) of labyrinthopeptin A1 and A2.
1×10^4 HEp-2 cells, which are stably expressing the reporter gene of a firefly luciferase (FF-luc), were seeded in a 96-well plate in 200 μl appropriate media. After 72 h of incubation at 37° C. in the presence of increasing concentrations of labyrinthopeptin A1 or A2 up to 100 μM, the cells have been lysed in 35 μl lysis buffer and the extinction of the FF-luc (RLU) was measured using a plate luminometer (Berthold). The number of surviving cells is […] proportional to residual luciferase expression.

[3] = tested on: wild-type RSV (hRSV); settings: read-out: IC50 of the anti-viral activity, RSV; intracellular RSV-P staining, HEp 2 cells, MOI 1, 18 h post infection
[4] = tested on: human respiratory syncytial virus (RSV); settings: read-out: IC50, inhibition of RSV induced cell death; FF-luc HEp-2 cells, MOI 3, 72 h, indirect assay
[5] = tested on: KSHV; settings: read-out: IC50 of the anti-viral activity, KSHV; HEK 293 cells, MOI 0.01, 48 h
[6] = tested on: TBEV (Toro isolate); settings: read-out: IC50 of the anti-viral activity, TBEV; Vero-B4 cells, MOI 0.01, 3 days, estimated by visual inspection
[7] = tested on: GFP-expressing CMV (HCMV) strain pHG-1 (HT8-GFP, AD169-based); settings: read-out: IC50 of the anti-viral activity, CMV, NHDF cells, MOI 0.5, GFP at day 4 post infection
[8] = tested on: CHIKV glycoprotein-mediated cell entry (CHIKV gp-pseudotyped lentiviral particles); settings: CHIKV glycoprotein pseudotypes, 293T cells, 48 h
[9] = tested on: VSV glycoprotein-mediated cell entry (VSV-G-pseudotyped lentiviral particles); settings: 48 h
[10] = tested on: ZIKV (Strain MR766-NIID); settings: read-out: IC50 of the anti-viral activity, ZIKV; Huh-7.5 cells, MOI 0.5, 48 h, genome copy equivalents
[11] = tested on: HCV JcR2a; settings: Huh 7.5 Fluc cells, Renilla luciferase after 48 h
[12] = tested on: peripheral blood mononuclear cells (PBMCs); settings: cited from earlier work
[13] = tested on: Huh 7.5 Fluc cells; assay: Cell viability (firefly luciferase) in the HCV assay
[14] = tested on: GFP-expressing CMV strain HT8-GFP (AD169); assay: Mode of action assay, pretreatment of CMV particles or NHDF cells; type: cell-based, Human cytomegalovirus; settings: LabyA1 3 μM, LabyA2 7 μM, PAA 180 μM

Row | SMILES | IC50 [1] [µM] | CC50 [2] [µM] | IC50 [3] [µM] | IC50 [4] [µM] | IC50 [5] [µM] | IC50 [6] [µM] | IC50 [7] [µM] | IC50 ([7]; listed as Labyrinthopeptin A1) [µM] | IC50 of the anti-viral activity, CHIKV [8] [µg/mL] | IC50 ([8]; read-out: IC50 of the anti-viral activity, CHIKV) [µM] | IC50 [9] [µM] | IC50 of the anti-viral activity, VSV [9] [µg/mL] | IC50 [10] [µM] | IC50 ([11]; read-out: IC50 of the anti-viral activity, HCV (virus entry), 4 h inoculation) [µM] | IC90 ([11]; read-out: IC90, inhibition of HCV virus entry) [µM] | inflammatory response in PBMCs [12] | cytotoxicity at the tested concentrations in the HCV assay [13] | IC50 of the anti-viral activity, DENV [1] [µg/mL] | inhibition of viral gene expression (CMV), permanently treated, effective dose ([14]; treatment throughout the infection cycle) | inhibition of viral gene expression (CMV), virus pretreated ([14]; virus pretreated 1 h then diluted 16-fold)
1 | C/C=C1\NC(=O)[C@H](Cc2ccccc2)NC(=O)[C@@H]2CCCN2C(=O)[C@H](C(C)C)NC(=O)[C@H](Cc2c[nH]c3ccccc23)NC(=O)[C@]23CSC[C@H](NC1=O)C(=O)N[C@H](C(=O)O)CSSC[C@H](NC(=O)[C@@H]1CSC[C@]4(C[C@H](N)C(=O)N[C@@H](CC(N)=O)C(=O)N[C@@H](C)C(=O)N4)C(=O)N[C@@H](C(C)C)C(=O)N[C@@H](Cc4c[nH]c5ccccc45)C(=O)N[C@@H](CCC(=O)O)C(=O)N1)C(=O)N[C@@H](C2)C(=O)N[C@@H]([C@@H](C)O)C(=O)NCC(=O)N3 [LabyA1, Labyrinthopeptin A1] | 1.78 | 79.7 | 0.39 | 3.87 | 2 | 24.1 | 1.3 | ~1.3 | 1.0 to 3.5 | 0.5 to 1.7 | 1.1 to 3.7 | 2.3 to 7.7 | 2.22 | 1.05 | 9.16 | does not cause an inflammatory response | No cytotoxicity was observed | – | – | –
2 | C#CCCCC(=O)N[C@H]1C[C@]2(CSC[C@@H](C(=O)N[C@H]3CSSC[C@@H](C(=O)O)NC(=O)[C@@H]4CSC[C@]5(C[C@H](NC3=O)C(=O)N[C@@H]([C@@H](C)O)C(=O)NCC(=O)N5)C(=O)N[C@@H](CC(C)C)C(=O)N[C@@H](Cc3ccccc3)C(=O)N[C@@H](C)C(=O)N4)NC(=O)[C@H](CCC(=O)O)NC(=O)[C@H](Cc3c[nH]c4ccccc34)NC(=O)[C@H](CC(C)C)NC2=O)NC(=O)[C@H](Cc2c[nH]c3ccccc23)NC(=O)[C@H](CC(=O)O)NC1=O [LabyA2-hexyn] | 7.03 | – | – | – | – | – | – | – | – | – | – | – | – | – | – | – | – | 14.2 | – | –
3 | O=C(O)CP(=O)(O)O [PAA, phosphonoacetic acid] | – | – | – | – | – | – | – | – | – | – | – | – | – | – | – | – | – | – | exerted inhibition only when permanently present in the culture medium | not when it was removed after pretreatment of the virus or cells
